IC50 data for seven compounds are collected here from patent US6919345B2, “Sulfonate substituted pyrazol pyridine derivatives” (Bayer Aktiengesellschaft, priority 2001, dated 2005).

pIC50: −log10 of the molar value.

As usually defined, the pIC50 is the negative decadic logarithm of the IC50, by convention in mol/L. Higher therefore signals a small IC50.

The assay deals with rabbit aorta rings. Nature of the assay: Vasorelaxant effect in vitro (phenylephrine-contracted rabbit aorta rings). The conditions noted are these: Oryctolagus cuniculus; concentration reducing height of phenylephrine-induced contraction of rabbit aorta rings by 50%; 0.1% DMSO. How it is done: Rabbits are stunned by a blow to the back of the neck and are exsanguinated. The aorta is removed, freed of adherent tissue, divided into rings 1.5 mm wide and put singly under tension in 5 ml organ baths containing carbogen-gassed Krebs-Henseleit solution at 37° C. with the following composition (mM): NaCl: 119; KCl: 4.8; CaCl2×2 H2O: 1; MgSO4×7 H2O; 1.4; KH2PO4: 1.2; NaHCO3: 25; glucose: 10. The force of contraction is detected with Statham UC2 cells, amplified and digitized via A/D converters (DAS-1802 HC, Keithley Instruments Munich) and recorded in parallel on chart recorders. A contraction is generated by adding phenylephrine to the bath cumulatively in increasing concentration. After several control cycles, the substance to be investigated is investigated in each further run in increasing dosage in each case, and the height of the contraction is compared with the height of the contraction reached in the last preceding run. The concentration necessary to reduce the height of the control value by 50% (IC50) is calculated from this. The standard application volume is 5 μl, and the DMSO content in the bath solution corresponds to 0.1%.

For the compound `Nc1nc(-c2nn(Cc3ccccc3F)c3ncccc23)ncc1OS(=O)(=O)CCl` [Example 1, 4-Amino-2-[1-(2-fluorobenzyl)-1H-pyrazolo[3,4-b]pyridin-3-yl]-5-pyrimidinyl chloromethanesulfonate], the negative logarithm of the IC50 (pIC50) was 6.15. `CS(=O)(=O)Oc1cnc(-c2nn(Cc3ccccc3F)c3ncccc23)nc1N` [Example 2] showed a pIC50 of 6.24. With `CCS(=O)(=O)Oc1cnc(-c2nn(Cc3ccccc3F)c3ncccc23)nc1N` [Example 3] the figure was 6.52; with `Nc1nc(-c2nn(Cc3ccccc3F)c3ncccc23)ncc1OS(=O)(=O)C1CC1` [Example 4], 6.15; with `CC(C)S(=O)(=O)Oc1cnc(-c2nn(Cc3ccccc3F)c3ncccc23)nc1N` [Example 5], 6.28.

`Nc1nc(-c2nn(Cc3ccccc3F)c3ncccc23)ncc1OS(=O)(=O)CCCC(F)(F)F` [Example 7] gave a negative-log IC50 (pIC50) of 6.36. With `Nc1nc(-c2nn(Cc3ccccc3F)c3ncccc23)ncc1OS(=O)(=O)c1ccccc1` [Example 10] the figure was 5.69.
